Measured values: patent US20240294478A1, “ANTI-CANCER COMPOUNDS AND METHODS OF USE” (YALE UNIVERSITY, priority 2021, published 2024)

Key:
[1] = test system: LN229 MGMT− shMLH1 cells; test: Short-term viability assay, LN229 MGMT- shMLH1; format: cell-based, human; details: for IC50: Homo sapiens, LN-229, Table III, read-out: IC50 against LN229 cell lines, MGMT− MMR−; for MGMT− RI: Table III
Experimental: (§1) The activity of KL-50 in MGMT-LN229 cells engineered to lack expression of other key MMR proteins including MSH6, MLH1, PMS2, and MSH3 was also confirmed. Western blotting was performed in LN229 MGMT+/−cells with stable expression of shRNA targeting MSH6, MLH1, PMS2, or MSH3 to confirm depletion of the shRNA targets. In shMSH6 cells, there was reduced expression of MSH2, and in shMLH1 cells, there was loss of PMS2, due to destabilization in the setting of loss of their heterodimeric partners. GAPDH serves as loading control. […] Short-term viability assay curves for KL-50 in LN229 MGMT+/−, MMR+/shMSH6 cells. […] Short-term viability assay curves for KL-50 in LN229 MGMT+/−, MMR+/shMLH1 cells. […] Short-term viability assay curves for KL-50 in LN229 MGMT+/−, MMR+/shPMS2 cells. […] Short-term viability assay curves for KL-50 in LN229 MGMT+/−, MMR+/shMSH3 cells.
MMR Protein shRNA Knockdown. pGIPZ lentiviral shRNA vectors targeting MSH2, MSH6, MLH1, PMS2, and MSH3 were purchased from Horizon Discovery (Table IV). Lentiviral particles were produced in HEK293T cells via co-transfection with lentiviral shRNA plasmid, pCMV-VSV-G envelope plasmid (Addgene, #8454) and psPAX2 packaging plasmid (Addgene, #12260), using Lipofectamine 3000 Reagent (Invitrogen, L3000001) per manufacturer's protocol. Viral particles were harvested 48 h post-transfection and used to transduce LN229 MGMT+/−cells in the presence of 8 μg/mL polybrene. Selection of pooled cells with lentiviral expression was established with 1 μg/mL puromycin 48 h post-transduction for 3 to 4 days. Single cell cloning was performed by limiting dilution and protein knockdown was confirmed by western blotting.
Short-term Cell Viability Assay. Cells were seeded in 96-well plates at 1000 or 2000 cells/well and allowed to adhere at 23° C. for 60 min and then incubated overnight at 37° C. Cells were treated with indicated concentrations of compounds in triplicate for 4-6 days prior to fixation with 3.7% paraformaldehyde and nuclear staining with 1 μg/mL Hoechst 33342 dye. Cells were imaged on a Cytation 3 imaging reader (BioTek) and quantified using CellProfiler software. For in vitro short-term growth delay experiments, IC50 values were determined from the nonlinear regression equation, [inhibitor] vs normalized response with variable slope.

[2] = test system: LN229 MGMT+ shMLH1 cells; test: Short-term viability assay, LN229 MGMT+ shMLH1; format: cell-based; details: Homo sapiens, LN-229, Table III, read-out: IC50 against LN229 cell lines, MGMT MMR−
Experimental: as §1
MMR Protein shRNA Knockdown. pGIPZ lentiviral shRNA vectors targeting MSH2, MSH6, MLH1, PMS2, and MSH3 were purchased from Horizon Discovery (Table IV). […]
Short-term Cell Viability Assay. […] Cells were imaged on a Cytation 3 imaging reader (BioTek) and quantified using CellProfiler software. For in vitro short-term growth delay experiments, IC50 values were determined from the nonlinear regression equation, [inhibitor] vs normalized response with variable slope.

[3] = test system: DNA repair foci in LN229 MGMT+/−, MMR+/− cells; test: Immunofluorescence foci assays (γH2AX, 53BP1, pRPA); format: cell-based, human; details: 20 μM, 2 to 48 h
Experimental: FIGS. 5A-5K: KL-50 activates DNA damage response pathways and cycle arrest in MGMT-cells, independent of MMR, and induces sensitivity in cells deficient in ICL or HR repair. […] Columns, mean; error bars, SD; n 5 technical replicates. FIGS. 5D-5K: KL-50 induces activation of the ATR-CHK1 and ATM-CHK2 signaling axes and delayed DNA repair foci formation in MGMT-deficient cells, independent of MMR status. […] Treatment with 1 μM doxorubicin for 24 h (Doxo) served as a positive control for p-CHK1 activation. […] Points, mean % cells with >10 foci; error bars, SD; n >5 technical replicates. […] Points, % cells with 10 foci, n>250 cells per condition.
Immunofluorescence Foci Assays. High-throughput immunofluorescence foci assays were performed at the Yale Center for Molecular Discovery (YCMD). Cells were seeded at 2000 cells/well in black polystyrene flat bottom 384-well plates (Greiner Bio-One) and allowed to adhere overnight. Compound addition was performed utilizing a Labcyte Echo 550 liquid handler (Beckman Coulter), with 6 replicates per test condition and 12 replicates per control condition. Following drug incubation, cells were fixed and stained for phospho-SER139-H2AX (yH2AX), 53BP1, or phospho-SER33-RPA2 (pRPA) as follows. […]

Structure (SMILES) | IC50 [1] [µM] | MGMT− RI [1] | IC50 [2] [µM] | γH2AX, 53BP1, pRPA foci formation [3]
NC(=O)c1ncn2c(=O)n(CCF)nnc12 [KL-50] | 7.8 ± 0.3 | 0.6 | 252 ± 28 | induced a maximal foci response at 48 h, specifically in MGMT-cells and irrespective of MMR status
Cn1nnc2c(C(N)=O)ncn2c1=O [TMZ, 4-methyl-5-oxo-2,3,4,6,8-pentazabicyclo[4.3.0]nona-2,7,9-triene-9-carboxamide, reference compound] | 917 ± 85 | 180 | 769 ± 100 | induced a comparable response in MGMT-cells, but this was abolished in the absence of functional MMR
